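In this assay, cells in 96-well plates receive the compound at five concentrations for 48 hours. Endpoints are linearly interpolated between the surrounding concentrations. TGI marks complete inhibition of growth.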
Tests used:
Test in all cases: growth of human tumour cells (NCI), 48 h
ACHN renal = system: ACHN renal
SR leukemia = system: SR leukemia
SK-MEL-28 melanoma = system: SK-MEL-28 melanoma
DU-145 prostate = system: DU-145 prostate
NCI/ADR-RES ovarian = system: NCI/ADR-RES ovarian
KM12 colon = system: KM12 colon
UACC-257 melanoma = system: UACC-257 melanoma
COLO 205 colon = system: COLO 205 colon
K-562 leukemia = system: K-562 leukemia
MDA-N = system: MDA-N
HCT-116 colon = system: HCT-116 colon
OVCAR-8 ovarian = system: OVCAR-8 ovarian
RXF 393 renal = system: RXF 393 renal
EKVX NSCLC = system: EKVX NSCLC
MALME-3M melanoma = system: MALME-3M melanoma

Structure (SMILES)	TGI (ACHN renal)	TGI (SR leukemia)	TGI (SK-MEL-28 melanoma)	TGI (DU-145 prostate)	TGI (NCI/ADR-RES ovarian)	TGI (KM12 colon)	TGI (UACC-257 melanoma)	TGI (COLO 205 colon)	TGI (K-562 leukemia)	TGI (MDA-N)	TGI (HCT-116 colon)	TGI (OVCAR-8 ovarian)	TGI (RXF 393 renal)	TGI (EKVX NSCLC)	TGI (MALME-3M melanoma)
S=C(N/N=C(\C(=N/NC(=S)N1CCCCC1)c1ccccn1)c1ccccn1)N1CCCCC1	91.6 µM	> 100 µM	> 100 µM	> 100 µM	> 100 µM	> 100 µM	> 100 µM	> 100 µM	> 100 µM	> 100 µM	> 100 µM	> 100 µM	73.4 µM	> 100 µM	> 100 µM
CCOC(=O)C(NC(=O)CC)(Nc1ccc(S(=O)(=O)Nc2ccc(OC)nn2)cc1)C(F)(F)F (stereo not given)	> 100 µM	> 100 µM	> 100 µM	> 100 µM	> 100 µM	> 100 µM	> 100 µM	> 100 µM	> 100 µM	> 100 µM	> 100 µM	> 100 µM	> 100 µM	> 100 µM	> 100 µM
Cc1ccc(N=C2SC(=NN(C)C)SC2=Nc2ccc(C)cc2)cc1	> 100 µM	> 100 µM	> 100 µM	> 100 µM	> 100 µM	> 100 µM	> 100 µM	> 100 µM	> 100 µM	> 100 µM	> 100 µM	> 100 µM	> 100 µM	> 100 µM	> 100 µM
COc1ccc(N2C(=O)C3c4[nH]c5ccccc5c4C4c5ccccc5CC4C3C2=O)cc1 (stereo not given)	> 100 µM	> 100 µM	> 100 µM	> 100 µM	> 100 µM	> 100 µM	> 100 µM	> 100 µM	> 100 µM	> 100 µM	> 100 µM	> 100 µM	> 100 µM	> 100 µM	> 100 µM
COC12C=CC(CC1)C(C)(C)C2OS(C)(=O)=O (stereo not given)	> 100 µM	> 100 µM	> 100 µM	> 100 µM	> 100 µM	> 100 µM	> 100 µM	> 100 µM	> 100 µM	> 100 µM	> 100 µM	> 100 µM	> 100 µM	> 100 µM	> 100 µM
COc1cc(/C=C/C(=N\NC(=S)NN)c2sc(NNC(C)=O)nc2C)ccc1O	> 100 µM	> 100 µM	> 100 µM	> 100 µM	> 100 µM	> 100 µM	> 100 µM	> 100 µM	> 100 µM	> 100 µM	> 100 µM	> 100 µM	> 100 µM	> 100 µM	> 100 µM
CC(=O)OCC1OC(n2c(N)c(C#N)c(-c3cccc(Cl)c3)c(C#N)c2=S)C(OC(C)=O)C(OC(C)=O)C1OC(C)=O (stereo not given)	> 100 µM	42.8 µM	> 100 µM	82 µM	96.4 µM	38.9 µM	65 µM	29.7 µM	> 100 µM	54.7 µM	94 µM	39.9 µM	22 µM	> 100 µM	> 100 µM
OC1(c2ccc(Cl)cc2)c2c(c3ccccc3c3ccccc23)C2=NCCN21 (stereo not given)	28.8 µM	30.5 µM	34.9 µM	45.6 µM	25.5 µM	47.8 µM	49.7 µM	> 100 µM	> 100 µM	51.1 µM	25.7 µM	28.5 µM	24.7 µM	35.4 µM	40.1 µM
COC1=CC(=O)c2nc3ccccc3c3ccnc1c23	> 65.4 µM	10.8 µM	41.5 µM	14.4 µM	51.3 µM	> 43.3 µM	17 µM	26.3 µM	> 100 µM	0.448 µM	> 22.8 µM	> 53.3 µM	16.2 µM	25.8 µM	7 µM
COc1ccc(N2N=NN(C(C)C)/C2=C(/Cl)c2nnnn2-c2ccc(OC)cc2)cc1	30.7 µM	> 31.8 µM	29.7 µM	22.7 µM	61.2 µM	31.3 µM	28.9 µM	13.1 µM	> 32.5 µM	27.4 µM	14.1 µM	18 µM	27.4 µM	36.1 µM	24.7 µM
Nc1ccccc1OCCCOc1ccccc1N	> 100 µM	> 100 µM	> 100 µM	> 100 µM	> 100 µM	> 100 µM	> 100 µM	> 100 µM	> 100 µM	> 100 µM	> 100 µM	> 100 µM	> 100 µM	> 100 µM	> 100 µM
COc1cc(S(=O)(=O)Nc2ccc(-c3csc(N4C(=O)C(C)SC4c4ccccc4)n3)cc2)ccc1Cl (stereo not given)	> 100 µM	> 100 µM	> 100 µM	> 100 µM	> 100 µM	> 100 µM	> 100 µM	> 100 µM	> 100 µM	> 100 µM	> 100 µM	> 100 µM	47.4 µM	> 100 µM	> 100 µM
CS(=O)(=O)OCC1CCCCCCCCCCC12SCCCS2 (stereo not given)	> 100 µM	> 100 µM	> 100 µM	> 100 µM	> 100 µM	> 100 µM	> 100 µM	> 100 µM	> 100 µM	> 100 µM	> 100 µM	> 100 µM	> 100 µM	> 100 µM	> 100 µM
